Measured values: patent US7807703B2, “Substituted aryl ketones” (Bayer CropScience AG, priority 2002, dated 2010)

assay: log P determination by reversed-phase HPLC (EEC Directive 79/831 Annex V.A8; acidic or neutral mobile phase); type: physicochemical; settings: HPLC reversed-phase C18, 43° C.; acidic range: 0.1% aqueous phosphoric acid, acetonitrile gradient (marked a))
Experimental: The log P values given in the table were determined in accordance with EEC Directive 79/831 Annex V.A8 by HPLC (High Performance Liquid Chromatography) using a reversed-phase column (C 18). Temperature: 43° C.
(a) Mobile phases for the determination in the acidic range: 0.1% aqueous phosphoric acid, acetonitrile; linear gradient from 10% acetonitrile to 90% acetonitrile—the corresponding measurement results are marked a) in Table 1.
(b) Mobile phases for the determination in the neutral range: 0.01 molar aqueous phosphate buffer solution, acetonitrile; linear gradient from 10% acetonitrile to 90% acetonitrile—the corresponding measurement results are marked b) in Table 1.

Row | Structure (SMILES) | logP
1 | CC(C)S(=O)(=O)NCCOc1c(Cl)ccc(C(=O)C2C(=O)CCCC2=O)c1Cl [Example 25] | logP = 2.50^a)
2 | CCn1ncc(C(=O)c2ccc(Cl)c(OCCNS(=O)(=O)c3cccs3)c2Cl)c1O [Example 34] | (I-2) logP = 2.41^a)
3 | CS(=O)(=O)NCCOc1c(Br)ccc(C(=O)C2C(=O)CCCC2=O)c1Br [Example 18] | logP = 2.23^a)
4 | CCn1ncc(C(=O)c2ccc(S(C)(=O)=O)c(CN(Cc3ccccc3)OC)c2Cl)c1O [Example 153] | (I-2) logP = 2.82^a)
5 | O=C1CCCC(=O)C1C(=O)c1ccc(Cl)c(OCCNS(=O)(=O)CCl)c1Cl [Example 7] | logP = 2.57^a)
6 | CCn1ncc(C(=O)c2ccc(Cl)c(CNOC)c2Cl)c1O [Example 130] | logP = 1.68^a)
7 | CCN(Cc1c(S(C)(=O)=O)ccc(C(=O)C2C(=O)CCCC2=O)c1Cl)OC [Example 150] | logP = 2.87^a)
8 | CCCS(=O)(=O)NCCOc1c(Cl)ccc(C(=O)c2cnn(CC)c2O)c1Cl [Example 167] | logP = 2.15^a)
9 | CS(=O)(=O)NCCOc1c(S(C)(=O)=O)ccc(C(=O)C2C(=O)CCCC2=O)c1Cl [Example 14] | logP = 1.76^a)
10 | CCn1ncc(C(=O)c2ccc(Cl)c(OCCNS(=O)(=O)C(F)(F)F)c2Cl)c1O [Example 10] | logP = 2.72^a)
11 | CCn1nc(C)c(C(=O)c2ccc(S(C)(=O)=O)c(CN(C)OC)c2Cl)c1O [Example 12] | logP = 1.45^a)
12 | CCCS(=O)(=O)NCCOc1c(Cl)ccc(C(=O)C2C(=O)CCCC2=O)c1Cl [Example 168] | logP = 2.67^a)

same assay, conditions: HPLC reversed-phase C18, 43° C.; no a)/b) mark printed, mobile phase not given

Row | Structure (SMILES) | logP
13 | CON(C)Cc1c(Cl)ccc(C(=O)C2C(=O)CCCC2=O)c1Cl [Example 1, 2-[2,4-dichloro-3-(N-methoxy-N-methylaminomethyl)benzoyl]-1,3-cyclohexanedione] | logP = 3.04

same assay, conditions: HPLC, reversed-phase C18, 43° C.; acidic range a): 0.1% aqueous phosphoric acid, acetonitrile, linear gradient 10% to 90% acetonitrile

Row | Structure (SMILES) | logP
14 | CCN(Cc1c(Cl)ccc(C(=O)c2cnn(CC)c2O)c1OC)OC [Example 485] | logP = 2.97^a)
15 | CCN(Cc1c(S(C)(=O)=O)ccc(C(=O)c2cnn(CC)c2O)c1Cl)OC(C)C [Example 404] | logP = 2.79^a)
16 | CCN(Cc1c(Cl)ccc(C(=O)C2C(=O)CCC(C)(C)C2=O)c1Cl)OC (centres unmarked) [Example 481] | (I-2) logP = 4.95^a)
17 | Cc1c(C(=O)C2C(=O)CCCC2=O)ccc(Cl)c1OCCNS(C)(=O)=O [Example 361] | logP = 2.13^a)
18 | CCn1nc(C)c(C(=O)c2ccc(Cl)c(OCCNS(C)(=O)=O)c2Cl)c1O [Example 355] | logP = 1.32^a)
19 | CCN(Cc1c(S(C)(=O)=O)ccc(C(=O)c2cnn(C)c2O)c1Cl)S(C)(=O)=O [Example 469] | logP = 1.22^a)
20 | CCN(Cc1c(Cl)ccc(C(=O)C2C(=O)CCCC2=O)c1OC)OC [Example 483] | logP = 3.19^a)
21 | CCS(=O)(=O)NCCOc1c(Br)ccc(C(=O)c2cnn(C)c2O)c1C [Example 363] | logP = 1.77^a)
22 | CCON(CC)Cc1c(S(C)(=O)=O)ccc(C(=O)c2cnn(CC)c2O)c1Cl [Example 451] | logP = 2.44^a)
23 | CCON(Cc1c(S(C)(=O)=O)ccc(C(=O)C2C(=O)CCCC2=O)c1Cl)CC1CCOC1 (centres unmarked) [Example 415] | (I-2) logP = 2.84^a)
24 | CCn1ncc(C(=O)c2ccc(Cl)c(CN(C)S(C)(=O)=O)c2Cl)c1O [Example 456] | logP = 1.72^a)
25 | CCn1ncc(C(=O)c2ccc(S(C)(=O)=O)c(CN(Cc3ccoc3)OC)c2Cl)c1O [Example 441] | (I-2) logP = 2.39^a)
26 | CCN(Cc1c(Cl)ccc(C(=O)c2cnn(C)c2O)c1OC)OC [Example 486] | logP = 2.44^a)
27 | CC(C)ON(Cc1c(S(C)(=O)=O)ccc(C(=O)C2C(=O)CCC(C)(C)C2=O)c1Cl)C(C)C (centres unmarked) [Example 399] | (I-2) logP = 4.80^a)
28 | COc1c(C(=O)C2C(=O)CCCC2=O)ccc(Cl)c1CN(C)OC [Example 477] | logP = 2.63^a)
29 | CON(Cc1c(S(C)(=O)=O)ccc(C(=O)C2C(=O)CCCC2=O)c1Cl)CC1CCOC1 (centres unmarked) [Example 408] | (I-2) logP = 2.50^a)
30 | CCN(Cc1c(S(C)(=O)=O)ccc(C(=O)C2C(=O)CCCC2=O)c1Cl)OC(C)C [Example 402] | logP = 3.52^a)

Row | Structure (SMILES) | logP
31 | CCON(C)Cc1c(S(C)(=O)=O)ccc(C(=O)C2C(=O)CCC(C)(C)C2=O)c1Cl (centres unmarked) [Example 425] | (I-2) logP = 3.65^a)
32 | C=CCN(Cc1c(S(C)(=O)=O)ccc(C(=O)C2C(=O)CCCC2=O)c1Cl)S(C)(=O)=O [Example 460] | logP = 2.17^a)
33 | CON(Cc1ccoc1)Cc1c(S(C)(=O)=O)ccc(C(=O)C2C(=O)CCCC2=O)c1Cl [Example 428] | (I-2) logP = 3.10^a)
34 | CN(Cc1c(S(C)(=O)=O)ccc(C(=O)C2C(=O)CCCC2=O)c1Cl)OCC1CC1 [Example 444] | (I-2) logP = 3.14^a)
35 | CCn1ncc(C(=O)c2ccc(S(C)(=O)=O)c(CN(OC)C3CCCC3)c2Cl)c1O [Example 379] | (I-2) logP = 2.99^a)
36 | CCn1ncc(C(=O)c2ccc(S(C)(=O)=O)c(CN(C)OCC3CCOC3)c2Cl)c1O (centres unmarked) [Example 435] | (I-2) logP = 2.03^a)
37 | CN(Cc1c(S(C)(=O)=O)ccc(C(=O)C2C(=O)CCCC2=O)c1Cl)OCC1CCOC1 (centres unmarked) [Example 434] | (I-2) logP = 2.67^a)
38 | CCN(Cc1c(S(C)(=O)=O)ccc(C(=O)c2c(C)nn(CC)c2O)c1Cl)OC [Example 406] | (I-2) logP = 2.04^a)
39 | CC(C)ON(C)Cc1c(S(C)(=O)=O)ccc(C(=O)C2C(=O)CCCC2=O)c1Cl [Example 393] | logP = 3.14^a)
40 | CCN(Cc1c(Cl)ccc(C(=O)c2cnn(CC)c2O)c1OC)S(C)(=O)=O [Example 462] | logP = 2.12^a)
41 | CON(CC(=O)N(C)C)Cc1c(S(C)(=O)=O)ccc(C(=O)C2C(=O)CCCC2=O)c1Cl [Example 396] | (I-2) logP = 1.93^a)
42 | CCN(Cc1c(S(C)(=O)=O)ccc(C(=O)c2c(C)nn(C)c2O)c1Cl)OC [Example 407] | (I-2) logP = 1.76^a)
43 | CON(CC(=O)N(C)C)Cc1c(S(C)(=O)=O)ccc(C(=O)C2C(=O)CCC(C)(C)C2=O)c1Cl (centres unmarked) [Example 419] | (I-2) logP = 2.58^a)
44 | CON(Cc1c(S(C)(=O)=O)ccc(C(=O)c2cnn(C)c2O)c1Cl)C(C)C1CC1 (centres unmarked) [Example 374] | (I-2) logP = 2.53^a)
45 | CCn1ncc(C(=O)c2ccc(S(C)(=O)=O)c(CN(OC)C(C)C)c2Cl)c1O [Example 370] | logP = 2.52^a)
46 | CN(Cc1c(S(C)(=O)=O)ccc(C(=O)C2C(=O)CCC(C)(C)C2=O)c1Cl)S(C)(=O)=O (centres unmarked) [Example 455] | (I-2) logP = 2.43^a)
47 | CS(=O)(=O)c1ccc(C(=O)C2C(=O)CCCC2=O)c(Cl)c1CN(CC1CCOC1)OC1CCCC1 (centres unmarked) [Example 426] | (I-2) logP = 3.53^a)

same assay, conditions: HPLC, reversed-phase C 18, 43° C.; acidic range: 0.1% aqueous phosphoric acid, acetonitrile (marked a) or acidic)

Row | Structure (SMILES) | log P (acidic)
48 | COC(=O)c1ccc(S(C)(=O)=O)c(CN(OC)C2CCCC2)c1Cl [VIII-38] | logPacidic = 3.67
49 | COC(=O)c1ccc(S(C)(=O)=O)c(CN(OC)C(C)C)c1Cl [VIII-25] | logPacidic = 3.13
50 | COC(=O)c1ccc(S(C)(=O)=O)c(CN(CC2CCOC2)OC)c1Cl (centres unmarked) [VIII-54] | logPacidic = 2.35
51 | CONCc1c(S(C)(=O)=O)ccc(C(=O)OC)c1Cl [VIII-21] | logPacidic = 1.69
52 | COC(=O)c1ccc(S(C)(=O)=O)c(CN(CC2CCOC2)OC2CCCC2)c1Cl (centres unmarked) [VIII-56] | logPacidic = 3.30
53 | COC(=O)c1ccc(S(C)(=O)=O)c(CN(C)OC(C)C)c1Cl [VIII-45] | logPacicic = 2.97
54 | CCON(C)Cc1c(S(C)(=O)=O)ccc(C(=O)OC)c1Cl [VIII-43] | logPacidic = 2.64
55 | CCN(Cc1c(S(C)(=O)=O)ccc(C(=O)OC)c1Cl)OC [VIII-23] | logPacidic = 2.74
56 | COC(=O)c1ccc(S(C)(=O)=O)c(CN(OC(C)C)C(C)C)c1Cl [VIII-47] | logPacidic = 3.86
57 | COC(=O)c1ccc(S(C)(=O)=O)c(CN(CC(=O)N(C)C)OC)c1Cl [VIII-53] | logPacidic = 1.74
58 | CCN(CC)C(=O)CN(Cc1c(S(C)(=O)=O)ccc(C(=O)OC)c1Cl)OC [VIII-36] | logPacidic = 2.28
59 | COC(=O)c1ccc(S(C)(=O)=O)c(CN(C)OC2CCCC2)c1Cl [VIII-49] | logPacidic = 3.48
60 | CCS(=O)(=O)NCCOc1c(Br)ccc(C(=O)OC)c1C [VIII-29] | logPacidic = 2.46
61 | CCS(=O)(=O)NCCOc1c(S(C)(=O)=O)ccc(C(=O)OC)c1Cl [VIII-31] | logPacidic = 1.75
62 | COC(=O)c1ccc(S(C)(=O)=O)c(CN(C)OCC2CC2)c1Cl [VIII-33] | logPacidic = 2.98
63 | CCN(Cc1c(S(C)(=O)=O)ccc(C(=O)OC)c1Cl)OC(C)C [VIII-46] | logPacidic = 3.39
64 | COC(=O)c1ccc(Cl)c(CN(C)S(C)(=O)=O)c1Cl [VIII-68] | logPacidic = 2.15

same assay, conditions: HPLC, reversed-phase C 18, 43° C.; mobile phase range not marked

Row | Structure (SMILES) | log P
65 | CCONCc1c(Cl)ccc(C(=O)OC)c1OC [VIII-13] | logP = 2.27
66 | CCOC(=O)c1ccc(Cl)c(OCCNS(=O)(=O)CC)c1Cl [VIII-15] | logP = 2.61
67 | CCONCc1c(S(C)(=O)=O)ccc(C(=O)OC)c1Cl [VIII-11] | logP = 2.05
68 | COC(=O)c1ccc(S(C)(=O)=O)c(CNN2CCNC2=O)c1Cl [VIII-5] | logP = 1.24
69 | CCONCc1c(Cl)ccc(C(=O)OC)c1Cl [VIII-7] | logP = 2.77

same assay, conditions: reversed-phase C18 HPLC column; HPLC, reversed-phase C 18, 43° C.; mobile phase range not marked; read-out: log P

Row | Structure (SMILES) | chromatographic logP
70 | CCOC(=O)c1ccc(Cl)c(OCCNS(C)(=O)=O)c1Cl [VIII-2, ethyl 2,4-dichloro-3-(2-methylsulphonylaminoethoxy)benzoate] | 2.35
71 | CON(C)Cc1c(Cl)ccc(C(=O)C2C(=O)CCCC2=O)c1Cl [Example 1, 2-[2,4-dichloro-3-(N-methoxy-N-methylaminomethyl)benzoyl]-1,3-cyclohexanedione] | 3.04
